Read-outs that look alike come from different tables or passages of the source. Marks after values point to notes of the source that are not given here.
How the values were obtained:
break light A [1] = assay: Molecular break light assay: cleavage of break light A by enediynes and Fe^+2-dependent agents; type: biochemical; conditions: for agent concentration at maximum turnover: [A] = 32 nM; for Vmax: 37° C.; for agent concentration at maximum turnover (Vapp/[cleavage agent]): [molecular break light A] = 3.2 nM; for effect of ascorbate on DNA-cleavage: addition of ascorbate
Procedure: Samples were analyzed with a FluoroMax-2 spectrofluorometer equipped with DataMax for Windows (Instruments S. A., Inc.; Edison, N.J.) and the temperature controlled (30° C., unless otherwise noted) by a Haake Circulator DC10. All samples were filtered prior to analysis and analyzed via a timebase scan (λex=485 nm, λEm=517 nm) in a Suprasil quartz cuvette (10 mm path) fitted with a magnetic stirring bar in a total volume of 2 mL. […] Total cleavage of the labeled oligonucleotide, confirmed by polyacrylamide gel electrophoresis (PAGE), was defined as the maximum fluorescence emission possible under saturated cleaving conditions. Emission units were converted to the amount of labeled oligonucleotide used within a procedure, thereby equating labeled oligonucleotide degradation as a function of the emission of fluorescence.
Enediyne antibiotics calicheamicin and esperamicin at varying concentrations (0.31, 0.78, 1.6, 3.2, 15.9, and 31.7 nM) were incubated in 40 mM Tris-HCl (pH 7.5) with 3.2 nM of the calicheamicin-specific labeled molecular break light oligonucleotide (A). DNA cleavage was initiated with the addition of 1 μL 100 mM dithiothreitol (“DTT”) to produce a final concentration of 50 μM DTT, and the reaction was monitored over 10 minutes via spectrofluorometry.
Pseudo-first order kinetic parameters were utilized to determine the initial velocities at each given enediyne concentration. Specifically, graphical representation of the data was based upon equation 2 where [A]t is the concentration of cleaved oligonucleotide at a given time (t) and [A]0 is the initial concentration of oligonucleotide in the assay. Least squares analysis gave the slope (k), or rate, which was converted to V by the relationship in equation 3. The maximum velocity achieved (Vmax) was then selected from the range of concentrations examined.
ln[A]t=−kt+ln[A]0 [Equation 2]
Bleomycin, an Fe^+2-dependent nucleic acid cleavage agent, is a natural metabolite from Streptomyces verticillus. Blenoxane (a mixture containing approximately 70% bleomycin A2 and 30% bleomycin B2) was dissolved in water & optically standardized (ε291=1.7×10^4M^−1 cm^−1). Bleomycin mediated cleavage was adapted from procedures outlined by Giloni et al. J. Biol. Chem. 256: 8608-8615 (1981). Several different concentrations of bleomycin (200 nM, 100 nM, 50 nM, 25 nM, 12.5 nM, 5 nM, and 2.5 nM) were incubated in 50 mM sodium phosphate, 2.5 mM ascorbate, at pH 7.5 and 37° C. with 3.2 nM of the molecular break light A.
The reaction was initiated by the addition of 65 mM Fe(II) and monitored over 5 minutes. This protocol was repeated with the addition of 5 mM sodium ascorbate to the above conditions. Pseudo-first order kinetic parameters were utilized to determine the initial velocities at each given bleomycin concentration as previously described.
In a first assay, 3.2 nM break light A was incubated in 40 mM Tris HCl and 2.5 mM ascorbate at 37° C. and pH 7.5. Cleavage was initiated by addition of MPE/Fe(II) in a 1.2:1 molar ratio to various concentrations. Final Fe(II) concentrations were 8 μM, 4 μM, 2 μM, 1 μM, 500 nM, 250 nM, and 125 nM.
In a second assay, 32 nM molecular break light A was incubated in 40 mM Tris and 2.5 mM sodium ascorbate at pH 7.5 and 37° C. Cleavage was initiated by addition of MPE/Fe(II) in a 1.2:1 molar ratio to various concentrations. Final Fe(II) concentrations were 50 nM, 125 nM, 250 nM, 500 nM, 1 μM, and 2 μM.
In a third assay, 32 nM break light A (calicheamicin-specific molecular break light oligonucleotide) was incubated in 40 mM Tris and 2.5 mM sodium ascorbate at pH 7.5 and 37° C.

[2] = tested on: dual fluorophoric-labeled dsDNA; conditions: 0.8 nM dual fluorophoric-labeled dsDNA, FCS spectrometer; cited from earlier work
break light B = assay: BamHI / DNaseI digestion of break light B (proof of principle); type: biochemical
Procedure: (§1) The cleavage of molecular break light probes A and B by BamHI was investigated. In a first assay, break light A and break light B were each incubated with 100 U BamHI. As a control, break light B was also incubated without enzyme. The incubations occurred at 37° C. in a solution containing 10 mM TrisHCl, 50 mM NaCl, 10 mM MgCl2, and 1 mM DTT at pH 7.9.
(§2) In a second assay, break light A and break light B were each incubated with 10 U DnaseI. As a control, break light A was also incubated without enzyme. The incubations occurred at 37° C. in a solution containing 40 mM Tris HCl, 10 mM MgSO4, and 1 mM CaCl2 at pH 8.0.

[3] = tested on: oligonucleotide substrate; conditions: previously reported values for BamHI; cited from earlier work
molecular break light B = assay: BamHI steady state kinetics and sensitivity limits with break light B; type: biochemical
Procedure: Samples were analyzed with a FluoroMax-2 spectrofluorometer equipped with DataMax for Windows (Instruments S. A., Inc.; Edison, N.J.) and the temperature controlled (30° C., unless otherwise noted) by a Haake Circulator DC10. All samples were filtered prior to analysis and analyzed via a timebase scan (λex=485 nm, λEm=517 nm) in a Suprasil quartz cuvette (10 mm path) fitted with a magnetic stirring bar in a total volume of 2 mL. Reactions were equilibrated to the incubation temperature before initiation of DNA cleavage as was evident by a steady background emission over 10 min. Total cleavage of the labeled oligonucleotide, confirmed by polyacrylamide gel electrophoresis (PAGE), was defined as the maximum fluorescence emission possible under saturated cleaving conditions. Emission units were converted to the amount of labeled oligonucleotide used within a procedure, thereby equating labeled oligonucleotide degradation as a function of the emission of fluorescence.
Determination of BamHI (10 units/μL) specific cleavage was performed in 6 mM TrisHCl, 100 mM NaCl, 6 mM MgCl2, and 1 mM DTT, at 37° C. and pH 7.5 with 3.2 nM of molecular break light B (FIG. 2B) and varying amounts of BamHI-specific oligonucleotide lacking the fluorophore and quenching moieties. Total substrate concentrations (including break light) were as follows: 389 nM, 196 nM, 81 nM, 42 nM, 11 nM, 7.5 nM, and 3.4 nM.
The reaction was initiated with 10 U BamHI enzyme and monitored via spectrofluorometry over a time course of fifteen minutes. The initial rate of DNA cleavage was determined from data within the first 100 seconds of initiation which was then adjusted according to equation 1. These adjusted values were utilized for the reciprocal plot from which the Michaelis-Menten kinetic parameters were determined.
Vact=Vobs([Sact]/[S*]) [Equation 1]
The steady-state kinetic parameters for a commercially available BamHI were determined. The dependence of BamHI hydrolysis on substrate concentration was investigated using mixtures of a fixed amount of molecular break light B and varying amounts of an analogous non-labeled oligonucleotide (lacking both FAM and DABCYL) over a wide substrate concentration range. The apparent competitive inhibition observed due to phenomenon of “carrier dilution” was corrected to give the appropriate kinetic parameters. See, e.g., Roy, et al. (1994).
The observed velocity (Vapp) is related to the actual velocity (Vact) by equation [I] where [Sact] and [S*] are the total substrate concentration and B concentration, respectively. The reciprocal plot after correction for this “carrier dilution” phenomenon is illustrated in FIG. 4b.
A recent fluorescence correlation spectroscopy (FCS) assay for the restriction endonuclease EcoRI using 0.8 nM of dual fluorophoric-labeled dsDNA and a highly specialized FCS spectrometer, reported a detection limit of 1.6 pM EcoRI. Kettling, U., et al. (1998). Under the conditions containing even slightly less oligonucleotide (0.68 nM molecular break light), cleavage was easily detectable to 3.7 pM BamHI. […] This assay was performed undert the same conditions as the other assays in this Example.

break light A [4] = assay: BamHI / DNaseI digestion of break light A (proof of principle); type: biochemical; conditions: 3.2 nM break light A, 37° C.; 100 U BamHI or 10 U DNaseI
Procedure: as §1, §2

[5] = [DNA]total = 3.2 nM, MPE as common agent

Molecule: methidiumpropyl-Fe^+2-EDTA [Methidiumpropyl-EDTA]
- agent concentration at maximum turnover (break light A [1]): ~50 nM
- Turnover (Vmax/[Agent]) (break light A [1]; [DNA]total = 3.2 nM): 2.4e-05 s⁻¹
- Vmax (break light A [1]; [DNA]total = 3.2 nM): 0.003 ± 0.001^d nM sec^−1
- Comparison to EDTA (fold enhancement over EDTA turnover) (break light A [1]; [5]): 1.6 × 10^3 fold
- Comparison to EDTA (fold enhancement over EDTA turnover) (break light A [1]; [DNA]total = 32 nM): 1.6 × 10^3 fold
- Turnover (Vmax/[Agent]) (break light A [1]; [DNA]total = 32 nM): 0.002 s⁻¹
- Vmax (break light A [1]; [DNA]total = 32 nM): 0.118 ± 0.004^e nM sec^−1
- agent concentration at maximum turnover (Vapp/[cleavage agent]) (break light A [1]): 125 nM
- effect of ascorbate on DNA-cleavage (break light A [1]): critical for efficient DNA-cleavage
- enhancement of cleavage efficiency in comparison to Fe^+2-EDTA (break light A [1]; from Table 1): ~10^3 fold

Molecule: esperamicin A1
- maximum fluorescence upon cleavage, compared with DNaseI (break light A [1]; 3.2 nM break light A, excess DTT): identical to that observed with DNaseI
- Turnover (Vmax/[Agent]) (break light A [1]; [DNA]total = 3.2 nM): 0.009 s⁻¹
- Vmax (break light A [1]; [DNA]total = 3.2 nM): 0.007 ± 0.001^d nM sec^−1
- Comparison to EDTA (fold enhancement over EDTA turnover) (break light A [1]; [5]): 6.1 × 10^5 fold
- enhancement of cleavage efficiency over bleomycin (break light A [1]; from Table 1): ~10 fold

Molecule: bleomycin
- detection of agent by the assay (sensitivity range) (break light A [1]; 3.2 nM break light A, conditions described): nM range
- Turnover (Vmax/[Agent]) (break light A [1]; [DNA]total = 3.2 nM): 0.001 s⁻¹
- Vmax (break light A [1]; [DNA]total = 3.2 nM): 0.009 ± 0.001^d nM sec^−1
- Comparison to EDTA (fold enhancement over EDTA turnover) (break light A [1]; [5]): 6.8 × 10^4 fold
- agent concentration at maximum turnover (Vapp/[cleavage agent]) (break light A [1]): 2.5 nM
- effect of ascorbate on DNA-cleavage (break light A [1]): did not affect
- additional increase of cleavage efficiency over MPE (break light A [1]; from Table 1): 10 fold

Molecule: EcoRI: restriction endonuclease
- detection limit [2]: 1.6 pM

Molecule: O=C([O-])CN(CCN(CC(=O)[O-])CC(=O)[O-])CC(=O)[O-].[Fe+2].[H+].[H+] [EDTA, Fe^+2-EDTA]
- agent concentration at maximum turnover (break light A [1]): ~1300 nM
- Comparison to EDTA (fold enhancement over EDTA turnover) (break light A [1]; [DNA]total = 32 nM): 1.0 fold
- Turnover (Vmax/[Agent]) (break light A [1]; [DNA]total = 32 nM): 1.5e-06 s⁻¹
- Vmax (break light A [1]; [DNA]total = 32 nM): 0.002 ± 0.001^e nM sec^−1
- effect of ascorbate on DNA-cleavage (break light A [1]): critical for efficient DNA-cleavage

B1: BamHI: restriction endonuclease, commercially available (protein, UniProt P23940 1-213, looked up)
Type II restriction enzyme …: MEVEKEFITDEAKELLSKDKLIQQAYNEVKTSICSPIWPATSKTFTINNTEKNCNGVVPIKELCYTLLEDTYNWYREKPLDILKLEKKKGGPIDVYKEFIENSELKRVGMEFETGNISSAHRSMNKLLLGLKHGEIDLAIILMPIKQLAYYLTDRVTNFEELEPYFELTEGQPFIFIGFNAEAYNSNVPLIPKGSDGMSKRSIKKWKDKVENK
- change in fluorescence intensity over time (break light B; 3.2 nM break light B, 37° C., 100 U BamHI or 10 U DNaseI): increase of fluorescence
- fluorescence maximum intensity upon complete cleavage, relative to DNaseI (break light B; same concentration of molecular break light): 75%
- Km [3]: 0.4 nM
- V max, previously reported [3]: 0.009 nM/s
- detection limit (molecular break light B): 0.12 pM
- detection limit (cleavage easily detectable to) (molecular break light B; 0.68 nM molecular break light): 3.7 pM
- Vmax (molecular break light B; 10 U BamHI, 3.2 nM break light B plus non-labeled oligonucleotide, 37° C., pH 7.5): 0.024 ± 0.001 nM/s
- Km (molecular break light B; 10 U BamHI, break light B plus non-labeled oligonucleotide, 37° C., pH 7.5): 8.9 ± 0.5 nM
- Comparison to EDTA (fold enhancement over EDTA turnover) (molecular break light B; BamHI, break light B): 4.8 × 10^5 fold
- Turnover (Vmax/[Agent]; also known as kcat) (molecular break light B; BamHI, break light B): 0.007^c sec^−1
- detection limit (molecular break light B; molecular break light concentration 34 nM): 0.12 pM
- change in fluorescence intensity over time (break light A [4]): no change

Reference: patent publication US20020187484A1, “Molecular break lights probes for detecting nucleotide cleavage” (priority 2000, published 2002)
